# From PubChem BioAssay (NCI)
#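 Method: 48-hour compound exposure of cells in 96-well plates, five concentrations, linear interpolation of endpoints. Abbreviation: GI50, concentration required for 50% inhibition of growth. The concentration for full growth arrest is given as TGI.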
# Assays:
# Assay in all cases: NCI tumour cell line growth inhibition, 48 h
# [1] = tested on: DU-145 prostate
# [2] = tested on: RPMI-8226 leukemia
# [3] = tested on: IGROV1 ovarian
# [4] = tested on: HOP-92 NSCLC
# [5] = tested on: K-562 leukemia
# [6] = tested on: A549 NSCLC
# [7] = tested on: SK-MEL-2 melanoma
# [8] = tested on: SK-MEL-5 melanoma
# [9] = tested on: HOP-62 NSCLC
# [10] = tested on: RXF 393 renal
# [11] = tested on: A498 renal
# [12] = tested on: SN12C renal
# [13] = tested on: SK-OV-3 ovarian
# [14] = tested on: NCI-H460 lung
# [15] = tested on: HT29 colon
# [16] = tested on: MDA-MB-435
# [17] = tested on: CAKI-1 renal
# [18] = tested on: HCT-116 colon
# [19] = tested on: OVCAR-3 ovarian
# [20] = tested on: UACC-62 melanoma
# [21] = tested on: SF-539 CNS
# [22] = tested on: MDA-MB-231 breast
# [23] = tested on: T-47D breast
# [24] = tested on: TK-10 renal
# [25] = tested on: SF-268 CNS
# [26] = tested on: HL-60(TB) leukemia
# [27] = tested on: OVCAR-5 ovarian
# [28] = tested on: UACC-257 melanoma
# [29] = tested on: HS 578T breast
# [30] = tested on: HCT-15 colon
# [31] = tested on: SW-620 colon
# [32] = tested on: OVCAR-8 ovarian
# [33] = tested on: MALME-3M melanoma
# [34] = tested on: MCF7 breast
# [35] = tested on: OVCAR-4 ovarian
# [36] = tested on: ACHN renal
# [37] = tested on: SF-295 CNS
# [38] = tested on: SK-MEL-28 melanoma
# [39] = tested on: NCI-H226 lung
# [40] = tested on: LOX IMVI melanoma
# [41] = tested on: KM12 colon
# [42] = tested on: COLO 205 colon
# [43] = tested on: SNB-19 CNS
# [44] = tested on: NCI-H522 lung
# [45] = tested on: BT-549 breast
# [46] = tested on: UO-31 renal
# [47] = tested on: NCI/ADR-RES ovarian
# [48] = tested on: 786-0 renal
# [49] = tested on: U251 CNS
# [50] = tested on: M14 melanoma
# [51] = tested on: SNB-75 CNS
# [52] = tested on: CCRF-CEM leukemia
# [53] = tested on: PC-3 prostate
# [54] = tested on: HCC-2998 colon
# [55] = tested on: EKVX NSCLC
# [56] = tested on: SR leukemia
# [57] = tested on: MOLT-4 leukemia
smiles,measurement,setting,value
COCCOc1ccc2ncc(C#Cc3cncc(C(=O)Nc4ccc(CN5CCN(C)CC5)c(C(F)(F)F)c4)c3)n2n1,GI50,[1],1060 nM
same,TGI,[1],4760 nM
same,GI50,[2],874 nM
same,TGI,[2],2590 nM
same,GI50,[3],351 nM
same,TGI,[3],2350 nM
same,GI50,[4],142 nM
same,TGI,[4],628 nM
same,GI50,[5],5 nM
same,TGI,[5],937 nM
same,GI50,[6],885 nM
same,TGI,[6],2610 nM
same,GI50,[7],403 nM
same,TGI,[7],1130 nM
same,GI50,[8],1700 nM
same,TGI,[8],7260 nM
same,GI50,[9],997 nM
same,TGI,[9],4370 nM
same,GI50,[10],733 nM
same,TGI,[10],1410 nM
same,GI50,[11],1170 nM
same,TGI,[11],2250 nM
same,GI50,[12],516 nM
same,TGI,[12],3670 nM
same,GI50,[13],2070 nM
same,TGI,[13],6400 nM
same,GI50,[14],708 nM
same,TGI,[14],1470 nM
same,GI50,[15],372 nM
same,TGI,[15],3090 nM
same,GI50,[16],421 nM
same,TGI,[16],4440 nM
same,GI50,[17],484 nM
same,TGI,[17],2920 nM
same,GI50,[18],227 nM
same,TGI,[18],1020 nM
same,GI50,[19],1090 nM
same,TGI,[19],7440 nM
same,GI50,[20],1500 nM
same,TGI,[20],7660 nM
same,GI50,[21],209 nM
same,TGI,[21],3090 nM
same,GI50,[22],274 nM
same,TGI,[22],1240 nM
same,GI50,[23],2720 nM
same,TGI,[23],12500 nM
same,GI50,[24],1590 nM
same,TGI,[24],5860 nM
same,GI50,[25],787 nM
same,TGI,[25],2130 nM
same,GI50,[26],311 nM
same,TGI,[26],1480 nM
same,GI50,[27],663 nM
same,TGI,[27],6070 nM
same,GI50,[28],1200 nM
same,TGI,[28],5690 nM
same,GI50,[29],598 nM
same,TGI,[29],2640 nM
same,GI50,[30],549 nM
same,TGI,[30],2510 nM
same,GI50,[31],402 nM
same,TGI,[31],1350 nM
same,GI50,[32],874 nM
same,TGI,[32],2220 nM
same,GI50,[33],220 nM
same,TGI,[33],868 nM
same,GI50,[34],166 nM
same,TGI,[34],968 nM
same,GI50,[35],840 nM
same,TGI,[35],8450 nM
same,GI50,[36],364 nM
same,TGI,[36],2010 nM
same,GI50,[37],3360 nM
same,TGI,[37],12700 nM
same,GI50,[38],676 nM
same,TGI,[38],1720 nM
same,GI50,[39],271 nM
same,TGI,[39],1540 nM
same,GI50,[40],367 nM
same,TGI,[40],1040 nM
same,GI50,[41],14 nM
same,TGI,[41],2720 nM
same,GI50,[42],529 nM
same,TGI,[42],1540 nM
same,GI50,[43],3920 nM
same,TGI,[43],15000 nM
same,GI50,[44],620 nM
same,TGI,[44],1450 nM
same,GI50,[45],1540 nM
same,TGI,[45],4280 nM
same,GI50,[46],622 nM
same,TGI,[46],3190 nM
same,GI50,[47],1210 nM
same,TGI,[47],3410 nM
same,GI50,[48],802 nM
same,TGI,[48],1640 nM
same,GI50,[49],2190 nM
same,TGI,[49],10200 nM
same,GI50,[50],265 nM
same,TGI,[50],1130 nM
same,GI50,[51],272 nM
same,TGI,[51],1260 nM
same,GI50,[52],700 nM
same,TGI,[52],4630 nM
same,GI50,[53],1790 nM
same,TGI,[53],8290 nM
same,GI50,[54],1180 nM
same,TGI,[54],7540 nM
same,GI50,[55],951 nM
same,TGI,[55],7750 nM
same,GI50,[56],687 nM
same,TGI,[56],2480 nM
same,GI50,[57],696 nM
same,TGI,[57],3730 nM
